Measured values: paper PMC9097188, “Design, Synthesis, and Molecular Modeling Studies of a Novel Benzimidazole as an Aromatase Inhibitor” (ACS Omega, 2022)
Read-outs that look alike come from different tables or passages of the source.

Key:
[1] = test system: A549 (lung carcinoma cell line); assay: MTT cytotoxicity assay, A549; type: cell-based; conditions: Homo sapiens, mean of four independent studies, read-out: IC50 against A549
Description: (§1) In this study, all compounds were tested for antiproliferative activity using an MTT assay with doxorubicin as a control against MCF-7 (human breast adenocarcinoma cell line), A549 (lung carcinoma cell line), HepG2 (human liver carcinoma cell line), HeLa (cervical cell line), and C6 (rat glioma cell line) cell lines. Table 1 summarizes the results of four independent studies as the mean IC50 value (half-maximum inhibitory concentration).
(§2) MTT tests were used to screen the anticancer activities of compounds 5a–i. The MTT assays were carried out as stated previously.[16],[17] The anticancer activity of the final compounds was tested on […]: A549 (lung carcinoma cell line), HeLa (cervical cell line), MCF-7 (human breast adenocarcinoma cell line), HepG2 (human liver carcinoma cell line), C6 (rat glioma cell line), and NIH3T3 […] (mouse embryo fibroblast cell line). In the MTT experiments, doxorubicin and Hoechst 33342 were employed as reference drugs.

[2] = test system: MCF-7 (human breast adenocarcinoma cell line); assay: MTT cytotoxicity assay, MCF-7; type: cell-based; conditions: mean of four independent studies, read-out: IC50 against MCF-7
Description: as §1, §2

[3] = test system: C6 (rat glioma cell line); assay: MTT cytotoxicity assay, C6; type: cell-based; conditions: mean of four independent studies, read-out: IC50 against C6
Description: as §1, §2

[4] = test system: HepG2 (human liver carcinoma cell line); assay: MTT cytotoxicity assay, HepG2; type: cell-based; conditions: mean of four independent studies, read-out: IC50 against HepG2
Description: as §1, §2

[5] = test system: HeLa (cervical cell line); assay: MTT cytotoxicity assay, HeLa; type: cell-based; conditions: Homo sapiens, mean of four independent studies, read-out: IC50 against HeLa
Description: as §1, §2

human aromatase = target: T1, human aromatase (Homo sapiens, UniProt P11511); assay: Aromatase (CYP19A) Inhibitor Screening Kit (Fluorimetric), BioVision; type: biochemical
T1 construct: purchased BioVision
T1 sequence (P11511 1-503): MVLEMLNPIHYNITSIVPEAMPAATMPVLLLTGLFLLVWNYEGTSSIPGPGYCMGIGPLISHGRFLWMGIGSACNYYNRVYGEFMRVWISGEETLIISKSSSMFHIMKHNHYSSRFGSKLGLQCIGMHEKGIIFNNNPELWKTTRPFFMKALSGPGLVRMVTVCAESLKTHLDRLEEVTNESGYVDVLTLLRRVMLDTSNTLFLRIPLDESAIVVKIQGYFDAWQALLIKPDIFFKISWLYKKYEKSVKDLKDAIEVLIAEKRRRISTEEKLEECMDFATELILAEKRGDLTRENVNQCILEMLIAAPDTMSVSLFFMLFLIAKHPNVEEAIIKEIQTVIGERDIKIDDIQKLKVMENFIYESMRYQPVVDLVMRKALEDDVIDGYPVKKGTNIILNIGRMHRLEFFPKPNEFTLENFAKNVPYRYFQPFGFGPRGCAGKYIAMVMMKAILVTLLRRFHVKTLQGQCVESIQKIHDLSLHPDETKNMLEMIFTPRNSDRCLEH
Description: An in vitro fluorescence-based test (Aromatase (CYP19A) Inhibitor Screening Kit (Fluorimetric), BioVision) was used to determine the inhibitory activity of the produced compounds against human aromatase.
The BioVision Aromatase (CYP19A) Inhibitor Screening Kit (Fluorometric) was used to carry out this experiment.

[6] = fluorimetric kit, compound dissolved in acetonitrile, read-out: IC50 aromatase inhibition
[7] = experimental validation of 3D-QSAR model, read-out: IC50 (aromatase, Table 5)

IC50 (human aromatase; [6]) [µM] | melting point [°C] | IC50 (human aromatase; [7]) [µM] | SMILES | IC50 [1] [µM] | IC50 ([2]; Homo sapiens, MCF7, MTT assay) [µM] | IC50 ([2]; MTT assay) [µM] | IC50 [3] [µM] | IC50 [4] [µM] | IC50 [5] [µM]
80.4 ± 3.12 | 189.9 to 191.4 | – | CCOc1ccc(-c2nc3ccc(-c4nnc(SCC(=O)N5CCN(Cc6ccc(F)cc6)CC5)o4)cc3[nH]2)cc1 [5i, 2-((5-(2-(4-Ethoxyphenyl)-1H-benzo[d]imidazol-6-yl)-1,3,4-oxadiazol-2-yl)thio)-1-(4-(4-fluorobenzyl)piperazin-1-yl)ethan-1-one] | 4.52 ± 0.21 | 9.06 ± 0.311 | 9.96 ± 0.312 | 6 ± 0.227 | 28.7 ± 1.22 | 42 ± 1.32
1.47 ± 0.062 | 155.5 to 157.4 | 1.48 | O=C(CSc1nnc(-c2ccc3nc(-c4ccc(O)cc4)[nH]c3c2)o1)N1CCN(Cc2ccc(Cl)cc2)CC1 [5b, 2-((5-(2-(4-Hydroxyphenyl)-1H-benzo[d]imidazol-6-yl)-1,3,4-oxadiazol-2-yl)thio)-1-(4-(4-chlorobenzyl)piperazin-1-yl)ethan-1-one] | ≥ 100 | 5.13 ± 0.211 | 6.55 ± 0.287 | 24.7 ± 1.21 | 55.2 ± 1.46 | ≥ 100
2.51 ± 0.124 | > 400 | 2.51 | O=C(CSc1nnc(-c2ccc3nc(-c4ccc(O)cc4)[nH]c3c2)o1)N1CCN(Cc2ccc(F)cc2)CC1 [5c, 2-((5-(2-(4-Hydroxyphenyl)-1H-benzo[d]imidazol-6-yl)-1,3,4-oxadiazol-2-yl)thio)-1-(4-(4-fluorobenzyl)piperazin-1-yl)ethan-1-one] | ≥ 100 | 6.55 ± 0.287 | 5.13 ± 0.211 | 18.2 ± 1.46 | 17.3 ± 1.1 | –
38.6 ± 1.13 | 266.5 to 267.9 | – | O=C(CSc1nnc(-c2ccc3nc(-c4ccc(O)cc4)[nH]c3c2)o1)N1CCN(Cc2ccccc2)CC1 [5a, 2-((5-(2-(4-Hydroxyphenyl)-1H-benzo[d]imidazol-6-yl)-1,3,4-oxadiazol-2-yl)thio)-1-(4-benzylpiperazin-1-yl)ethan-1-one] | ≥ 100 | 9.96 ± 0.312 | 9.06 ± 0.311 | ≥ 100 | 38.8 ± 0.887 | ≥ 100
